Measured values from patent EP0545103A1, “Insecticidal, acaricidal and molluscicidal 1-(substituted) thioalkylpyrroles” (priority 1991, dated 1993).

Assays:
Assay type in all cases: in vivo
[1] = tested on: Spodoptera eridania, 3rd instar larvae, southern armyworm; assay: Southern armyworm systemic uptake (stem systemic) test; parameters: key: 0: no effect; 10-25% kill; 26-35% kill; 36-45% kill; 46-55% kill; 56-65% kill; 66-75% kill; 76-85% kill; 86-99% kill; 9: 100% kill; conditions: cut stem in emulsion 3 days
From the text: Spodoptera eridania, systemic uptake, 3rd instar larvae, southern armyworm
Subsequent 10-fold dilutions are made with water as needed. Sieva limabean plants, with the primary leaves expanded to a length of 7-8 cm, are cut off at least 3 cm above the soil level to avoid contamination with soil bacteria which will cause decay of the stem during the test. The cut stem is placed in the test emulsion and wrapped with a bit of cotton to hold the stem off the bottom of the bottle and to limit evaporation. The treated stem is thus maintained for 3 days at 27° C to allow the test compound to be taken up into the plant. Following this, one leaf is removed from the plant and placed in a 100 x 10 mm petri dish with 10 southern armyworms as described above. Mortality counts and observations of feeding damage are made 3 and 5 days later.
(§1) All of the above tests are rated according to the rating scale shown below.

[2] = tested on: Heliothis virescens, egg, tobacco budworm; assay: Tobacco budworm egg test, dipped cotton leaf and eggs; parameters: key: 0: no effect; 10-25% kill; 26-35% kill; 36-45% kill; 46-55% kill; 56-65% kill; 66-75% kill; 76-85% kill; 86-99% kill; 9: 100% kill; conditions: 1000 ppm; mortality rating after 3 days
Method: (§2) Test solutions are prepared by dissolving the test compound in a 35% acetone in water mixture to give a concentration of 10,000 ppm. Subsequent dilutions are made with water as needed.
Heliothis virescens, egg, tobacco budworm
A young cotton leaf about 6-7cm in length is dipped in an agitated test suspension for about 3 seconds. Eggs are collected on a cheesecloth and the cloth is cut into 10-20mm squares, each containing approximately 50-100 eggs which are 6-30 hours old. The egg-containing cheesecloth square is similarly dipped in a test suspension and placed on a treated cotton leaf. The combination is dried in a hood and then placed in an 8 ounce Dixie® cup #2168-ST (240ml volume, 6cm tall, 9.5cm top diameter, 8.0cm bottom diameter) into which a 5cm length of damp dental wick has been placed. The cup is covered with a clear plastic lid and held for 3 days, after which mortality counts are made.
as §1

[3] = tested on: Empoasca abrupta, adult, western potato leafhopper; assay: Western potato leafhopper systemic uptake test; parameters: key: 0: no effect; 10-25% kill; 26-35% kill; 36-45% kill; 46-55% kill; 56-65% kill; 66-75% kill; 76-85% kill; 86-99% kill; 9: 100% kill; conditions: 100 ppm; cut stem in emulsion 3 days; mortality rating after 2 days
Method: Empoasca abrupta, adult, western potato leafhopper Systemic Uptake
An emulsion containing 0.1 gm of the test material, 0.2 gm of Emulphor EL-620® emulsifier, 10 mL of acetone and 90 mL of water is prepared and diluted 10-fold with water to give a 100 ppm emulsion. Subsequent 10-fold dilutions are made with water as needed. Sieva limabean plants, with the primary leaves expanded to a length of 7-8 cm, are cut off at least 3 cm above the soil level to avoid contamination with soil bacteria which will cause decay of the stem during the test. The cut stem is placed in the test emulsion and wrapped with a bit of cotton to hold the stem off the bottom of the bottle and to limit evaporation. The treated stem is maintained for 3 days at 27°C to allow the test compound to be taken up into the plant. Following this, one leaf is removed from the plant and placed in a 100 x 10 mm petri dish containing a moist filter paper and about 10 adult leafhoppers as described above. Mortality counts are made after 2 days.
as §1

[4] = tested on: Tetranychus urticae (OP-resistant strain), 2-spotted spider mite; assay: 2-spotted spider mite test, dipped infested limabean plants; parameters: key: 0: no effect; 10-25% kill; 26-35% kill; 36-45% kill; 46-55% kill; 56-65% kill; 66-75% kill; 76-85% kill; 86-99% kill; 9: 100% kill; conditions: for OP-RESISTANT MITES Adult: mortality rating after 2 days; for OP-RESISTANT MITES Egg / OP-RESISTANT MITES Nymph: rating after 5 days
Method: as §2
Tetranychus urticae (OP-resistant strain), 2-spotted spider mite
Sieva limabean plants with primary leaves expanded to 7-8 cm are selected and cut back to one plant per pot. A small piece is cut from an infested leaf taken from the main colony and placed on each leaf of the test plants. This is done about 2 hours before treatment to allow the mites to move over to the test plant and to lay eggs. The size of the cut, infested leaf is varied to obtain about 100 mites per leaf. At the time of test treatment, the piece of leaf used to transfer the mites is removed and discarded. The newly mite-infested plants are dipped in the test solution for 3 seconds with agitation and set in the hood to dry. After 2 days one leaf is removed and mortality counts are made. After 5 days, another leaf is removed and observations are made of mortality of the eggs and/or newly emerged nymphs.
as §1

[5] = tested on: Spodoptera eridania, 3rd instar larvae, southern armyworm; assay: Southern armyworm 3rd instar test, dipped limabean leaf; conditions: for ARMYWORM Day 3: rating at 3 days; for ARMYWORM Day 5: rating at 5 days
Method: as §2
Spodoptera eridania, 3rd instar larvae, southern armyworm
A Sieva limabean leaf expanded to 7-8 cm in length is dipped in the test solution with agitation for 3 seconds and allowed to dry in a hood. The leaf is then placed in a 100 x 10 mm petri dish containing a damp filterpaper on the bottom and ten 3rd instar caterpillars. At 3 and 5 days, observations are made of mortality, reduced feeding, or any interference with normal molting.
as §1

[6] = tested on: Empoasca abrupta, adult, western potato leafhopper; assay: Western potato leafhopper contact test, dipped limabean leaf; conditions: mortality rating after 2 days
Method: as §2
Empoasca abrupta, adult, western potato leafhopper
A Sieva limabean leaf about 5 cm long is dipped in the test solution for 3 seconds with agitation and placed in a hood to dry. The treated leaf is placed in a 100 x 10 mm petri dish containing a moist filter paper and about 10 adult leafhoppers are added. After 2 days, mortality counts are made.
as §1

[7] = tested on: Aphis fabae, mixed instar, bean aphid; assay: Bean aphid spray test on nasturtium; parameters: key: 0: no effect; 10-25% kill; 26-35% kill; 36-45% kill; 46-55% kill; 56-65% kill; 66-75% kill; 76-85% kill; 86-99% kill; 9: 100% kill; conditions: 100 ppm; spray; mortality rating after 2 days
Method: as §2
Aphis fabae, mixed instar, bean aphid
Pots containing single nasturtium plants (Tropaeolum sp.) about 5 cm tall are infested with about 100-200 aphids one day prior to treatment. Each pot is sprayed with the test solution for 2 revolutions of a 4 rpm turntable in a hood, using a #154 DeVilbiss atomizer. The spray tip is held about 15 cm from the plant and the spray directed so as to give complete coverage of the plants and the aphids. The sprayed pots are set on their sides on white enamel trays and mortality estimates are made after 2 days.
as §1

[8] = tested on: Heliothis virescens, 3rd instar tobacco budworm; assay: Tobacco budworm 3rd instar test, dipped cotton cotyledons; parameters: key: 0: no effect; 10-25% kill; 26-35% kill; 36-45% kill; 46-55% kill; 56-65% kill; 66-75% kill; 76-85% kill; 86-99% kill; 9: 100% kill; conditions: mortality rating after 3 days
Method: as §2
Heliothis virescens, 3rd instar tobacco budworm
Cotton cotyledons are dipped in the test solution and allowed to dry in a hood. When dry, each is cut into quarters and ten sections are placed individually in 30 mL plastic medicine cups containing a 5-7mm long piece of damp dental wick. One 3rd instar caterpillar is added to each cup and the cup is sealed with MYLAR® film. Treatments are maintained for 3 days before a mortality count and observation of reduction in feeding damage are made.
as §1

[9] = tested on: Diabrotic undecimpunctata howardi, 3rd instar southern corn rootworm; assay: Southern corn rootworm soil test; parameters: key: 0: no effect; 10-25% kill; 26-35% kill; 36-45% kill; 46-55% kill; 56-65% kill; 66-75% kill; 76-85% kill; 86-99% kill; 9: 100% kill; conditions: mortality rating after 6 days
Method: Diabrotic undecimpunctata howardi, 3rd instar southern corn rootworm
One cc of fine talc is placed in a 30 mL wide-mouth screw-top glass jar. One mL of the appropriate acetone test solution is pipetted onto the talc so as to provide 1.25 and 0.25 mg of active ingredient per jar. The jars are set under a gentle air flow until the acetone is evaporated. The dried talc is loosened, 1 cc of millet seed is added to serve as food for the insects and 25 mL of moist soil is added to each jar. The jar is capped and the contents thoroughly mixed on a Vortex Mixer. Following this, ten 3rd instar rootworms are added to each jar and the jars are loosely capped to allow air exchange for the larvae. The treatments are held for 6 days when mortality counts are made. Missing larvae are presumed dead, since they decompose rapidly and can not be found. The concentrations used in this test correspond approximately to 50 and 10 kg/ha, respectively.
as §1

[10] = tested on: Spodoptera eridania, 3rd instar larvae, southern armyworm; assay: Southern armyworm 7-day residual test; conditions: R designates Residual: 7-day residual foliage, concentration not given
Method: as §2
Spodoptera eridania, 3rd instar larvae, southern armyworm, 7-day residual
The limabean leaves treated in the above test are maintained under high intensity lamps in the greenhouse for 7 days. These lamps duplicate the effects of a bright sunny day in June in New Jersey and are kept on for 14 hour day length. After 7 days, the foliage is sampled and assayed as in the above-said test.
as §1

Row | Structure (SMILES) | ARMYWORM Stem Sys [1] | TOBACCO BUDWORM Egg [2] | LEAFHOPPER Systemic [3] | OP-RESISTANT MITES Adult ([4]; 10 ppm) | OP-RESISTANT MITES Egg ([4]; 10 ppm) | OP-RESISTANT MITES Adult ([4]; 100 ppm) | OP-RESISTANT MITES Egg ([4]; 100 ppm) | OP-RESISTANT MITES Adult ([4]; 300 ppm) | OP-RESISTANT MITES Egg ([4]; 300 ppm) | OP-RESISTANT MITES Nymph ([4]; 300 ppm) | ARMYWORM Day 3 ([5]; 10 ppm) | ARMYWORM Day 5 ([5]; 10 ppm) | ARMYWORM Day 3 ([5]; 100 ppm) | ARMYWORM Day 5 ([5]; 100 ppm) | ARMYWORM Day 3 ([5]; 1000 ppm) | ARMYWORM Day 5 ([5]; 1000 ppm) | LEAFHOPPER Contact ([6]; 10 ppm) | LEAFHOPPER Contact ([6]; 100 ppm) | APHIDS [7] | also measured
1 | CC(C)OC(=S)SCn1c(-c2ccc(Cl)cc2)c(C#N)c(Cl)c1C(F)(F)F [Example 22] | 0 | 0 | 0 | 9 (100% kill) | 9 (100% kill) | 9 (100% kill) | 9 (100% kill) | 9 (100% kill) | 0 | 9 (100% kill) | 9 (100% kill) | 9 (100% kill) | 9 (100% kill) | 9 (100% kill) | 9 (100% kill) | 9 (100% kill) | 9 (100% kill) | 9 (100% kill) | 7 (76-85% kill) | –
2 | N#Cc1c(Cl)c(C(F)(F)F)n(CSC2=NCCCN2)c1-c1ccc(Cl)cc1 [Example 5] | 8 (86-99% kill) | 0 | 8 (86-99% kill) | 0 | 0 | – | 9 (100% kill) | – | 0 | 0 | – | – | – | – | – | – | – | – | 0 | TOBACCO BUDWORM 3rd Instar ([8]; 10 ppm): 0; TOBACCO BUDWORM 3rd Instar ([8]; 100 ppm): 9 (100% kill); TOBACCO BUDWORM 3rd Instar ([8]; 1000 ppm): 9 (100% kill); OP-RESISTANT MITES Nymph ([4]; 10 ppm): 0; SOUTHERN CORN ROOTWORM ([9]; 50 (ppm as headed)): 0; ARMYWORM Day 3 R ([10]; rating at 3 days): 9 (100% kill); ARMYWORM Day 5 R ([10]; rating at 5 days): 9 (100% kill)
3 | CCOC(=S)SCn1c(-c2ccc(Cl)cc2)c(C#N)c(Cl)c1C(F)(F)F [Example 23] | – | 0 | 0 | 9 (100% kill) | 9 (100% kill) | 9 (100% kill) | 9 (100% kill) | 9 (100% kill) | 0 | 9 (100% kill) | 9 (100% kill) | 9 (100% kill) | 9 (100% kill) | 9 (100% kill) | 9 (100% kill) | 9 (100% kill) | 9 (100% kill) | 9 (100% kill) | 5 (56-65% kill) | SOUTHERN CORN ROOTWORM ([9]; 1 (ppm as headed)): 0
